Assay results published in ChEMBL document CHEMBL5625227, “Discovery and optimization of 2,3-diaryl-1,3-thiazolidin-4-one-based derivatives as potent and selective cytotoxic agents with anti-inflammatory activity” (Eur J Med Chem, 2023).
The source made the active and inactive calls. The rule behind the calls is not given here.

Columns and labels:
MCF7 [1] = experiment: Cytotoxicity against human MCF7 cells assessed as inhibition in cell growth incubated for 72 hrs by MTT assay; type: functional, cell-based; settings: MCF7, 72 h
HT-29 = experiment: Cytotoxicity against human HT-29 cells assessed as inhibition in cell growth incubated for 72 hrs by MTT assay; type: functional, cell-based; settings: HT-29, 72 h
A2780 = experiment: Cytotoxicity against human A2780 cells assessed as inhibition in cell growth incubated for 72 hrs by MTT assay; type: functional, cell-based; settings: A2780, 72 h
[2] = Cytotoxicity against human MRC5 cells assessed as inhibition in cell growth incubated for 72 hrs by MTT assay; type: toxicity, cell-based
[3] = Selectivity index, ratio of IC50 for cytotoxicity against human MRC5 cells to IC50 for cytotoxicity against human MCF7 cells; settings: MRC5 cells versus MCF7 cells
[4] = Selectivity index, ratio of IC50 for cytotoxicity against human MRC5 cells to IC50 for cytotoxicity against human HT-29 cells; settings: MRC5 cells versus HT-29 cells
[5] = Selectivity index, ratio of IC50 for cytotoxicity against human MRC5 cells to IC50 for cytotoxicity against human A2780 cells; settings: MRC5 cells versus A2780 cells
[6] = molecular target: T1, Prostaglandin G/H synthase 1 (Ovis aries, UniProt P05979); experiment: Inhibition of ovine COX-1
T1 sequence (P05979 whole entry): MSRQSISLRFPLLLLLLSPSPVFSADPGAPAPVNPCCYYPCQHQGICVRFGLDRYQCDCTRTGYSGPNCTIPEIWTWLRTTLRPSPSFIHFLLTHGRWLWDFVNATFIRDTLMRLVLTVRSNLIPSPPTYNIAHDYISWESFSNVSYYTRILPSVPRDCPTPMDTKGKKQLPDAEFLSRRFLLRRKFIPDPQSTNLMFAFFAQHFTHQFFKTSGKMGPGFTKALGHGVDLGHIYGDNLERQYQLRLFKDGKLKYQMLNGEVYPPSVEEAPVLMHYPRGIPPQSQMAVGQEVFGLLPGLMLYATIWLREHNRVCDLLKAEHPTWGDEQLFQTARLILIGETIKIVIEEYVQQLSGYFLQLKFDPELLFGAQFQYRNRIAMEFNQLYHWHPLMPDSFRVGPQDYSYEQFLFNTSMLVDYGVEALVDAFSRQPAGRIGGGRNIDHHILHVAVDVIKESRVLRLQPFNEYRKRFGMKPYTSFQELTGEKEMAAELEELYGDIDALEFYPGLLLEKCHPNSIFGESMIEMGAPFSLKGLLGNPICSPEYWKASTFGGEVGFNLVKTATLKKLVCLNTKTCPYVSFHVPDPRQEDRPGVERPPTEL

Rattus norvegicus [7] = experiment: Antiinflammatory activity against carrageenan-induced paw edema Sprague-Dawley rat model assessed as inhibition of paw edema by measuring edema thickness at 50 mg/kg, po measured after 1 hr (reference value: 0.71 +/- 0.03 mm); type: functional
Rattus norvegicus [8] = experiment: Antiinflammatory activity against carrageenan-induced paw edema Sprague-Dawley rat model assessed as inhibition of paw edema by measuring edema thickness at 50 mg/kg, po measured after 3 hrs (reference value: 1.41 +/- 0.13 mm); type: functional
Rattus norvegicus [9] = experiment: Antiinflammatory activity against carrageenan-induced paw edema Sprague-Dawley rat model assessed as inhibition of paw edema by measuring edema thickness at 50 mg/kg, po measured after 5 hrs (reference value: 1.39 +/- 0.11 mm); type: functional
Rattus norvegicus [10] = experiment: Antiinflammatory activity against carrageenan-induced paw edema Sprague-Dawley rat model assessed as inhibition of inflammation at 50 mg/kg, po after 1 hr relative to control; type: functional; design: scale not given: the % may be the effect or the level left
Rattus norvegicus [11] = experiment: Antiinflammatory activity against carrageenan-induced paw edema Sprague-Dawley rat model assessed as inhibition of inflammation at 50 mg/kg, po after 3 hrs relative to control; type: functional; design: scale not given: the % may be the effect or the level left
Rattus norvegicus [12] = experiment: Antiinflammatory activity against carrageenan-induced paw edema Sprague-Dawley rat model assessed as inhibition of inflammation at 50 mg/kg, po after 5 hrs relative to control; type: functional; design: scale not given: the % may be the effect or the level left
THP-1 = experiment: Cytotoxicity against human THP-1 cells assessed as inhibition in cell growth; type: functional, cell-based
HepG2 = experiment: Cytotoxicity against human HepG2 cells assessed as inhibition in cell growth; type: functional, cell-based
HCT-116 = experiment: Cytotoxicity against human HCT-116 cells assessed as inhibition in cell growth; type: functional, cell-based
MCF7 [13] = experiment: Cytotoxicity against human MCF7 cells assessed as inhibition in cell growth; type: functional, cell-based
PC-3 = experiment: Cytotoxicity against human PC-3 cells assessed as inhibition in cell growth; type: functional, cell-based
Sus scrofa = organism: Sus scrofa; experiment: Induction of porcine brain tubulin polymerization at 3 uM by fluorescence-based tubulin polymerization assay

SMILES	IC50 (MCF7 [1])	IC50 (HT-29)	IC50 (A2780)	IC50 at 72 h [2]	selectivity ratio at 72 h [3]	selectivity ratio at 72 h [4]	selectivity ratio at 72 h [5]	further results
O=C(COc1ccc(N2C(=O)CSC2c2ccccc2)cc1)Nc1ccc(F)cc1 (stereo not given)	2750 nM	5130 nM	5320 nM	13500 nM	4.89	2.62	2.53	–
O=C(COc1ccc(N2C(=O)CSC2c2ccc(Cl)cc2)cc1)Nc1ccc(Cl)cc1 (stereo not given)	2330 nM	1320 nM	7840 nM	6600 nM	2.83	5	0.84	–
Cc1ccc(NC(=O)COc2ccc(N3C(=O)CSC3c3ccc(Cl)cc3)cc2)cc1 (stereo not given)	2080 nM	890 nM	1640 nM	3180 nM	1.53	3.57	1.94	–
O=C(COc1ccc(N2C(=O)CSC2c2ccc(Cl)cc2)cc1)Nc1ccccc1 (stereo not given)	1310 nM	440 nM	2600 nM	1480 nM	1.13	3.36	0.57	–
O=C(COc1ccc(N2C(=O)CSC2c2ccccc2)cc1)Nc1ccccc1 (stereo not given)	2390 nM	4810 nM	7070 nM	3690 nM	1.54	0.77	0.52	–
O=C(COc1ccc(N2C(=O)CSC2c2ccc(Cl)cc2)cc1)Nc1ccc(F)cc1 (stereo not given)	1460 nM	640 nM	11000 nM	8720 nM	5.97	13.6	0.79	–
Cc1ccc(NC(=O)COc2ccc(N3C(=O)CSC3c3ccccc3)cc2)cc1 (stereo not given)	1790 nM	2110 nM	1630 nM	2850 nM	1.59	1.35	1.75	IC50 [6]: 4550 nM; Activity (Rattus norvegicus [7]): 0.57 mm; Activity (Rattus norvegicus [8]): 0.67 mm; Activity (Rattus norvegicus [9]): 0.69 mm; Activity (Rattus norvegicus [10]): 15.3%; Activity (Rattus norvegicus [11]): 32.7%; Activity (Rattus norvegicus [12]): 47.48%
COc1ccc(N2C(=O)CSC2c2cc(OC)c(OC)c(OC)c2)cc1 (stereo not given)	–	–	–	–	–	–	–	IC50 (THP-1): 1210 nM
CC(=O)c1ccc(NC(=O)COc2ccc(C3SCC(=O)N3c3ccccc3)cc2)cc1 (stereo not given)	–	–	–	–	–	–	–	IC50 (HepG2): 18200 nM; IC50 (HCT-116): 18200 nM; IC50 (MCF7 [13]): 18200 nM; IC50 (PC-3): 18200 nM
COc1ccc(NC(=O)COc2ccc(N3C(=O)CSC3c3ccccc3)cc2)cc1OC (stereo not given)	1760 nM	2150 nM	1280 nM	7370 nM	4.19	3.43	5.76	–
Cc1ccc(NC(=O)COc2ccc(N3C(=O)CSC3c3ccc(C)cc3)cc2)cc1 (stereo not given)	1330 nM	700 nM	2820 nM	3110 nM	2.34	4.44	1.1	–
Cc1ccc(C2SCC(=O)N2c2ccc(OCC(=O)Nc3ccccc3)cc2)cc1 (stereo not given)	1150 nM	1130 nM	2810 nM	890 nM	0.77	0.79	0.32	–
COc1cc(NC(=O)COc2ccc(N3C(=O)CSC3c3ccccc3)cc2)cc(OC)c1OC (stereo not given)	2270 nM	3210 nM	2000 nM	9380 nM	4.13	2.92	4.69	–
O=C(COc1ccc(N2C(=O)CSC2c2ccccc2)cc1)Nc1ccc(Cl)cc1 (stereo not given)	5960 nM	3530 nM	17000 nM	10600 nM	1.79	3.02	0.63	IC50 [6]: 36500 nM; Activity (Rattus norvegicus [7]): 0.54 mm; Activity (Rattus norvegicus [8]): 0.63 mm; Activity (Rattus norvegicus [9]): 0.53 mm; Activity (Rattus norvegicus [10]): 15.3%; Activity (Rattus norvegicus [11]): 32.7%; Activity (Rattus norvegicus [12]): 47.48%
COc1cc2c(c(OC)c1OC)-c1ccc(OC)c(=O)cc1[C@@H](NC(C)=O)CC2 [COLCHICINE]	–	5190 nM	23 nM	–	–	–	–	–
COc1ccc(NC(=O)COc2ccc(N3C(=O)CSC3c3ccc(C)cc3)cc2)cc1 (stereo not given)	2470 nM	5340 nM	4700 nM	2890 nM	1.17	0.54	0.61	IC50 [6]: 8370 nM; Activity (Rattus norvegicus [7]): 0.61 mm; Activity (Rattus norvegicus [8]): 0.79 mm; Activity (Rattus norvegicus [9]): 0.73 mm; Activity (Rattus norvegicus [10]): 15.3%; Activity (Rattus norvegicus [11]): 32.7%; Activity (Rattus norvegicus [12]): 47.48%
COc1ccc(NC(=O)COc2ccc(N3C(=O)CSC3c3ccc(Cl)cc3)cc2)cc1 (stereo not given)	1240 nM	780 nM	1280 nM	1000 nM	0.81	1.28	0.78	–
COc1cccc2c1C(=O)c1c(O)c3c(c(O)c1C2=O)C[C@@](O)(C(=O)CO)C[C@@H]3O[C@H]1C[C@H](N)[C@H](O)[C@H](C)O1 [DOXORUBICIN]	–	1500 nM	5120 nM	2500 nM	–	–	–	–
CC(=O)O[C@H]1C(=O)[C@@]2(C)[C@H]([C@H](OC(=O)c3ccccc3)[C@]3(O)C[C@H](OC(=O)[C@H](O)[C@@H](NC(=O)c4ccccc4)c4ccccc4)C(C)=C1C3(C)C)[C@]1(OC(C)=O)CO[C@@H]1C[C@@H]2O	–	–	–	–	–	–	–	Activity (Sus scrofa): Active
